Results from paper PMC10470178, “Long-acting lenacapavir protects macaques against intravenous challenge with simian-tropic HIV” (eBioMedicine, 2023).

Experiments:
[1] = test system: stHIV-A19; assay: PrEP protection from high-dose intravenous stHIV-A19 challenge in pigtail macaques; assay type: in vivo, pigtail macaques (Macaca nemestrina)
Procedure: Sixteen male, purpose-bred pigtail macaques (Macaca nemestrina; ages 4.6–8.5 years at the time of study initiation) were housed at NIH-Bethesda (Supplementary Table S1). All study animals received enrofloxacin (10 mg/kg, administered orally, once per day for 10 days), paromomycin (25 mg/kg, administered orally, twice daily for 7–10 days), and fenbendazole (50 mg/kg administered orally, once per day for 5 days) two weeks to 43 months prior to study initiation. Lenacapavir or drug vehicle (sterile, preservative-free 57.5% w/v polyethylene glycol 300 in water) doses were administered to sedated animals via SC injection into the scapular region such that no more than 2 ml of solution was injected into a single SC site. Animals in the LEN pharmacokinetic evaluation study (N = 6) each received two doses of LEN, both at 15 mg/kg (N = 3) or at 50 mg/kg (N = 3), 6 weeks apart. Animals in the virus challenge experiment each received a single dose of LEN at 25 mg/kg (N = 3, LEN PrEP group) or drug vehicle (N = 4, vehicle control group) 30 days prior to stHIV-A19 challenge, or a cART regimen consisting of tenofovir disoproxil fumarate (TDF), emtricitabine (FTC), and dolutegravir (DTG) (N = 3, TDF/FTC/DTG group), coformulated and administered as previously described[29]^,[30] for 7 days beginning 3 days prior to stHIV-A19 challenge (Supplementary Figure S1). Hair was clipped and skin marked at LEN and vehicle injection sites to allow for subsequent visual and manual assessment and scoring of potential ISRs by non-blinded veterinary care staff. Complete blood counts (CBC) and serum chemistries were monitored prior to and at 2- to 4-week intervals after LEN administration for at least one year. Following the first dose of LEN in the PK study, one animal in the 50-mg/kg dosing group received 7 consecutive days of daily ketoprofen (2 mg/kg) administered intramuscularly for ISR analgesia at veterinary discretion. For the second dose of LEN in the PK study, all animals in the 50-mg/kg dosing group received 5–7 consecutive days of twice daily oral carprofen (2 mg/kg) analgesia administered prophylactically starting on the day of LEN dosing. In the IV challenge PrEP study, all LEN and vehicle control animals received 3–5 consecutive days of twice daily oral carprofen (2 mg/kg) analgesia administered prophylactically starting on the day of injection. For virus challenge, PrEP study animals each received 1 × 10^5 infectious units of stHIV-A19 injected intravenously. After LEN washout, LEN PrEP group animals received a single 50-mg/kg dose of rhesusized depleting anti-CD8α antibody (MT807R1, RRID: AB_2716320, NIH Nonhuman Primate Reagent Resource), administered SC to anesthetized animals.
Simian-tropic HIV was isolated from clarified PTM plasma by centrifugation (21,000×g for 1 h), and the resultant pellet was extracted as described.[31] Pigtail macaque PBMCs were subjected to nucleic acid extraction essentially as previously described for tissues.[32] HIV gag DNA and RNA copies were assessed using a multiplexed qPCR assay, as previously described.[33] Plasma stHIV-A19 vRNA levels are reported as copies/ml of plasma. PBMC-associated stHIV-A19 vDNA levels are reported as copies/10^6 cell equivalents, based on 2 copies of the CCR5 gene per diploid cellular genome.[34]
Plasma specimens collected from all 10 virus challenge animals prior to and at 8 weeks after stHIV-A19 challenge were evaluated for the presence of antibodies specific for HIV-1 by Western blot analysis using the GS HIV-1 Western Blot kit (Bio-Rad, cat #32508) according to the manufacturer’s instructions.
Statistical analyses were performed using R v4.1.1 ((R Core Team, 2021). R: A language and environment for statistical computing. R Foundation for Statistical Computing, Vienna, Austria. URL https://www.R-project.org/). […]

[2] = Equilibrium dialysis shift assay in PTM plasma; assay type: in vitro ADME, pigtail macaque; conditions: competitive equilibrium dialysis, LEN 2 μM in 10% PTM plasma, 4 donors, 24 h, 37 °C
Procedure: The protein shift ratio for LEN in PTM plasma was determined by competitive equilibrium dialysis. Lenacapavir (2 μM) was spiked into 10% PTM plasma from each of 4 individual donors (3 males and 1 female) and then placed in triplicate into one side of assembled dialysis cells (Harvard Apparatus), followed by the addition of RPMI cell culture medium containing 10% foetal bovine serum to the opposite side of each cell. After a 24-h equilibration period at 37 °C, plasma and cell culture medium samples were collected and individually mixed 1:1 with the reciprocal blank matrix. Samples were then deproteinated following the addition of acetonitrile (1:4 ratio, respectively) containing 50 ng/ml warfarin and 50 ng/ml ritonavir as an internal standard and analysed using a liquid chromatography with tandem mass spectrometry (LC-MS/MS) method utilizing a SciEx API 4000 triple quadrupole mass spectrometer equipped with a Shimadzu Nexera UPLC system. The mean plasma protein binding-adjusted shift for LEN in 100% PTM plasma obtained from 4 independent experiments, each using a single PTM plasma donor performed in triplicate, was then calculated using a non-linear equation.

[3] = design: method as in earlier work; conditions: single SC injection of 900 mg LEN, Phase 1b clinical trial; cited from earlier work
[4] = test system: HIV-1; design: method as in PMID 32612233; conditions: people with HIV-1, monotherapy, 450 mg, after 9 days of treatment; cited from earlier work
[5] = all 3 LEN PrEP animals, 34 days of monitoring after anti-CD8α antibody at 419 days post-challenge

CC(C)(C#Cc1ccc(-c2ccc(Cl)c3c(NS(C)(=O)=O)nn(CC(F)(F)F)c23)c([C@H](Cc2cc(F)cc(F)c2)NC(=O)Cn2nc(C(F)(F)F)c3c2C(F)(F)[C@@H]2C[C@H]32)n1)S(C)(=O)=O [LEN, Lenacapavir]
PBMC vDNA following CD8 depletion [1, 5]: 6.2–11.0 vDNA copies/10^6 PBMC | plasma vRNA following CD8 depletion [1, 5]: < 2.8 vRNA copies/ml plasma | cell-associated viral DNA (CA-vDNA) in PBMC after stHIV-A19 challenge ([1]; all animals of the group, any time point): vDNA was not detected at any time point | plasma vRNA after stHIV-A19 challenge ([1]; assay threshold 2.8 vRNA copies/ml, LEN ∼370 days follow-up, TDF/FTC/DTG through 120 days post-challenge): no plasma vRNA detected at any time point | infection rates compared with vehicle control group ([1]; each p < 0.03, Fisher's exact test): significantly lower than in the vehicle control group | HIV-1 Western blot serology ([1]; plasma, 8 weeks after stHIV-A19 challenge, all animals): remained seronegative | protection from infection after stHIV-A19 challenge ([1]; single IV challenge 1 × 10^5 i.u., LEN 25 mg/kg SC 30 days before (N = 3), 3-drug regimen daily SC for 7 days from 3 days before (N = 3)): protected PTMs from infection | projected reduction of antiviral potency in 100% PTM plasma vs complete cell culture media (protein shift) [2]: 9.7 fold | mean plasma drug concentrations relative to PA-EC95, maintained for 6 months [3]: ≥ 6 fold | maximum reductions in plasma viral loads [4]: > 100 fold
